Several values for one entry are separate records, joined by “and”; a condition that tells them apart may be missing. Identical values can stand only once. Like-named read-outs stand apart in the source and are kept apart here.
Assays:
[1] = Effect of pH 3.5-4.5 on vasopressin formulations, four weeks at 25° C. or 40° C. (Example 9); type: physicochemical
Description: To test of effect of pH on vasopressin formulations, solutions containing 20 units/mL vasopressin, adjusted to pH 3.5, 3.6, 3.7, 3.8, 3.9, 4, 4.1, 4.2, 4.3, 4.4, or 4.5 with 10 mM acetate buffer, were prepared. One mL of each of the vasopressin formulations was then filled into 10 cc vials.
The vasopressin formulations were stored for four weeks at: (i) 25° C.; or (ii) 40° C., and the assay (% label claim; vasopressin remaining) and % total impurities after four weeks were measured using the methods described in EXAMPLE 1. FIGS. 11 and 12 below display the results of the experiments at 25° C. The results of the experiments at 40° C. are included in FIGS. 13 and 14.

[2] = pH of stored samples (Example 8); type: physicochemical; conditions: inverted
Description: (§1) Experiments were also conducted on the same samples above over the course of the experiments to measure the amount of individual impurities in the samples, pH of the samples, chlorobutanol content, particulate matter, antimicrobial effectiveness, and bacterial endotoxin levels (TABLES 25-42). (NR=no reading; ND=not determined; UI=unidentified impurity).

spermatozoa = conditions: mice; cited from earlier work
bacterial = test: In vitro bacterial mutagenicity (Ames) test
[3] = type: physicochemical
[4] = Chlorobutanol content of stored samples (Example 8); type: physicochemical; conditions: inverted
Description: as §1

[5] = cited from earlier work
[6] = cited from earlier work; remark: listed apart in the source
[7] = Investigation of pH: vasopressin stability by HPLC after 60° C. for one week (Example 2); type: physicochemical; conditions: 10 mM citrate buffer in isotonic saline
Description: To determine a possible pH for a vasopressin formulation with good shelf life, vasopressin formulations were prepared in 10 mM citrate buffer diluted in isotonic saline across a range of pH. Stability was assessed via HPLC as in EXAMPLE 1 after incubation of the formulations at 60° C. for one week. FIG. 9 illustrates the results of the experiment. […] At pH 3.5, the percent label claim (% LC) of vasopressin was highest, and the proportion of total impurities was lowest.

[8] = test system: Chinese hamster ovary (CHO) cell; test: In vitro Chinese hamster ovary (CHO) cell chromosome aberration test; type: cell-based

NC(=O)CC[C@@H]1NC(=O)[C@H](Cc2ccccc2)NC(=O)[C@H](Cc2ccc(O)cc2)NC(=O)[C@@H](N)CSSC[C@@H](C(=O)N2CCC[C@H]2C(=O)N[C@@H](CCCN=C(N)N)C(=O)NCC(N)=O)NC(=O)[C@H](CC(N)=O)NC1=O [Vasopressin, Cyclo (1-6) L-Cysteinyl-L-Tyrosyl-L-Phenylalanyl-L-Glutaminyl-L-Asparaginyl-L-Cysteinyl-L-Prolyl-L-Arginyl-L-Glycinamide]
pH providing the highest stability ([1]; 25° C.): 3.7 | pH with lowest level of impurities within pH 3.6 to 3.8 ([1]; 25° C.): 3.8 | pH providing the highest stability ([1]; 40° C.): 3.6 | pH with lowest level of impurities within pH 3.6 to 3.8 ([1]; 40° C.): 3.8 | pH ([2]; 5° C., 1 month): 3.5 and 3.6 | pH ([2]; 5° C., 2 months): 3.5 and 3.6 | pH ([2]; 5° C., 3 months): 3.5 and 3.6 | pH ([2]; 5° C., 6 months): 3.5 and 3.6 | pH ([2]; 5° C., 9 months): 3.5 and 3.6 | pH ([2]; 5° C., 12 months): 3.5 and 3.6 | pH ([2]; 5° C., 18 months): 3.8 and 3.6 and 3.5 | pH ([2]; 5° C., 24 months): 3.5 and 3.6 | pH ([2]; 5° C., Initial): 3.5 and 3.6 | pH ([2]; 40° C., 1 month): 3.3 | pH ([2]; 40° C., 2 months): 3.2 | pH ([2]; 40° C., 3 months): 3.1 | pH ([2]; 40° C., Initial): 3.5 | effect on spermatozoa (spermatozoa): can have an effect on function and fertilizing ability of spermatozoa | bacterial mutagenicity (Ames) test result (bacterial): negative | pH with lowest level of impurities within pH 3.6 to 3.8 ([3]; pH 3.6): 3.8 | pH with lowest level of impurities within pH 3.7 to 3.8 ([3]; pH 3.7): 3.8 | Chlorobutanol ([4]; 5° C., 1 month): 0.49% w/v and 0.48% w/v | Chlorobutanol ([4]; 5° C., 2 months): 0.48% w/v and 0.47% w/v | Chlorobutanol ([4]; 5° C., 3 months): 0.48% w/v and 0.47% w/v | Chlorobutanol ([4]; 5° C., 6 months): 0.47% w/v and 0.48% w/v | Chlorobutanol ([4]; 5° C., 9 months): 0.48% w/v and 0.47% w/v | Chlorobutanol ([4]; 5° C., 12 months): 0.48% w/v and 0.49% w/v | Chlorobutanol ([4]; 5° C., 18 months): 0.49% w/v and 0.48% w/v | Chlorobutanol ([4]; 5° C., 24 months): 0.49% w/v and 0.48% w/v | Chlorobutanol ([4]; 5° C., Initial): 0.48% w/v and 0.47% w/v | Chlorobutanol ([4]; 40° C., 1 month): 0.48% w/v | Chlorobutanol ([4]; 40° C., 2 months): 0.50% w/v | Chlorobutanol ([4]; 40° C., 3 months): 0.47% w/v | Chlorobutanol ([4]; 40° C., Initial): 0.49% w/v | increase of clearance of vasopressin in pregnancy ([5]; at term): up to 5 fold | clearance of vasopressin in pregnancy ([5]; first trimester): only slightly increased | increase of clearance of vasopressin in pregnancy ([5]; third trimester): about 4 fold | dose excreted unchanged in urine ([6]; human, in vivo): about 6% | apparent half-life ([6]; infusion rates 0.01-0.1 units/minute): ≤ 10 min | pH at which the greatest level of stability was observed (highest % LC, lowest total impurities) [7]: 3.5 | CHO cell chromosome aberration test result [8]: negative

Reference: patent publication US9968649B2, “Vasopressin formulations for use in treatment of hypotension” (Par Pharmaceutical, Inc., priority 2015, dated 2018)
